Results on eleven molecules are retold here after the NIST ThermoML archive (doi:10.1016/j.jct.2007.03.005).

The conditions of series [1]: DTA.
The nature of series [2]: Molar enthalpy of transition or fusion. As to conditions: DSC.

Numbers after ± are expanded uncertainties.

On to `N#CCCC#N` [butanedinitrile], for which the Normal melting temperature in series [1] (Crystal 1) turned out to be 57.11 ± 1.4 °C. Moreover, the Triple point temperature in series [1] (Crystal 2) turned out to be 233.59 ± 0.53 K. Moreover, the “Molar enthalpy of transition or fusion” value is 0.896 ± 0.11 kcal/mol in series [2] (Crystal 1) and 1.46 ± 0.0813 kcal/mol in series [2] (Crystal 2).
Regarding `N#CCCCCCCCCC#N` [decanedinitrile], in series [1] (Crystal 1), the Normal melting temperature worked out at 8.03 ± 0.46 °C. In series [1] (Crystal 2), the Triple point temperature amounted to 278.02 ± 1.9 K. In addition, in series [2] (Crystal 1), the “Molar enthalpy of transition or fusion” value came to 6.73 ± 0.153 kcal/mol.
Regarding `N#CCCCCCCCCCCC#N` [dodecanedinitrile], the Normal melting temperature in series [1] (Crystal) worked out at 21.08 ± 0.48 °C. In addition, the “Molar enthalpy of transition or fusion” value in series [2] (Crystal) was 8.21 ± 0.263 kcal/mol.
In the case of `N#CCCCCCC#N` [heptanedinitrile], the Normal melting temperature in series [1] (Crystal 1) is -31.4 ± 0.39 °C. Also, in series [1] (Crystal 2), the Triple point temperature was determined as 236.72 ± 1.8 K. Further, the “Molar enthalpy of transition or fusion” value in series [2] (Crystal 1) stood at 3.59 ± 0.406 kcal/mol.
For `N#CCCCCC#N` [hexanedinitrile], the Normal melting temperature in series [1] (Crystal 1) worked out at 1.89 ± 0.49 °C. In addition, the Triple point temperature in series [1] (Crystal 2) was determined as 270.25 ± 1.9 K. The “Molar enthalpy of transition or fusion” value in series [2] (Crystal 1) came to 4.31 ± 0.153 kcal/mol.
In the case of `N#CCCCCCCCC#N` [nonanedinitrile], in series [1] (Crystal), the Normal melting temperature was -22.01 ± 0.55 °C. Further, in series [2] (Crystal), the “Molar enthalpy of transition or fusion” value was 4.46 ± 0.263 kcal/mol.
On to `N#CCCCCCCC#N` [octanedinitrile], for which the Normal melting temperature in series [1] (Crystal 1) is -4.22 ± 1.1 °C. Further, the Triple point temperature in series [1] (Crystal 2) was 265.82 ± 2.5 K. Further, in series [2] (Crystal 1), the “Molar enthalpy of transition or fusion” value turned out to be 5.25 ± 0.148 kcal/mol.
For `N#CCCCC#N` [pentanedinitrile], in series [1] (Crystal), the Normal melting temperature was -31.10 ± 0.5 °C. For the same molecule, in series [2] (Crystal), the “Molar enthalpy of transition or fusion” value came out at 2.88 ± 0.189 kcal/mol.
As to `N#CCC#N` [propanedinitrile], the Normal melting temperature in series [1] (Crystal 1) was found to be 31.89 ± 0.55 °C. Moreover, the values for the Triple point temperature in series [1] (Crystal 2), in series [1] (Crystal 3) and in series [1] (Crystal 4) were 303.64 ± 2.1 K, 294.24 ± 1.1 K and 260.9 ± 1.6 K, respectively. Also, the “Molar enthalpy of transition or fusion” value was 2.56 ± 0.11 kcal/mol in series [2] (Crystal 1) and 0.103 ± 0.0287 kcal/mol in series [2] (Crystal 4).
As to `N#CCCCCCCCCCCCCC#N` [tetradecanedinitrile], the Normal melting temperature in series [1] (Crystal 1) turned out to be 36.40 ± 0.8 °C. The Triple point temperature in series [1] (Crystal 2) is 261.05 ± 0.56 K. In addition, the results for the “Molar enthalpy of transition or fusion” value in series [2] (Crystal 1) and in series [2] (Crystal 2) were 9.6 ± 0.227 kcal/mol and 0.423 ± 0.0741 kcal/mol, respectively.
Turning to `N#CCCCCCCCCCC#N` [undecanodinitrile], the Normal melting temperature in series [1] (Crystal) was -7.01 ± 0.73 °C. For the same molecule, the “Molar enthalpy of transition or fusion” value in series [2] (Crystal) is 6.22 ± 0.406 kcal/mol.
